In brackets after ≈: the same amount, converted by molar mass. Like-named read-outs stand apart in the source and are kept apart here.

Here are results for six compounds from article PMC7359024, “Synthesis, Structure–Activity Relationship, and Mechanistic Studies of Aminoquinazolinones Displaying Antimycobacterial Activity” (ACS Infectious Diseases, 2020).

Data set [1] has as its system Mtb H37Rv strain. Briefly: MIC90 determination in GASTE-Fe media (broth microdilution). The data set is classed as cell-based, Mycobacterium tuberculosis. Conditions: read-out: MIC90 GASTE-Fe. On the technique in general: Dilution methods test growth across graded concentrations, often in twofold steps.
For data set [2], the system named is H37Rv Mtb strain. Put plainly: MIC90 in different media, H37Rv strain. It is filed as cell-based, Mycobacterium tuberculosis.
The subject of data set [3] is Mtb Erdman-Lux.
The nature of data set [4]: physchem. The data set is classed as physicochemical. Conditions: 25 °C, pH 7.4, aqueous buffer, kinetic solubility, pH 7.4, HPLC method. On the procedure: The kinetic solubility assay was performed using a miniaturised shake flask method. 10 mM stock solutions of each of the test compounds were used to prepare calibration standards (10-220μM) in DMSO. The same 10mM stock solutions were accurately dispensed in duplicate into 96-well plates and the DMSO dried down (MiVac GeneVac, 90 min, 37 °C). Thereafter, the samples were reconstituted (200 µM) in phosphate buffered saline (pH 7.4) and shaken (20 hours, 25 °C). The solutions were filtered and analysed by means of HPLC -DAD (Agilent 1200 Rapid Resolution HPLC with a diode array detector). […]

Data set [5] is classed as in vitro ADME. Conditions: for Metabolic Stability H (% Rem.): human liver microsomes; for Metabolic Stability M (% Rem.): mouse liver microsomes; for Metabolic Stability R (% Rem.): rat liver microsomes. As to the method: 3.2. Microsomal stability
The metabolic stability assay was performed in duplicate in a 96-well micro titre plate. The test compounds (0.1 μM) were incubated individually in mouse, rat and pooled human liver microsomes ((final protein concentration of 0.4 mg/mL; XenoTech, Lenexa, KS ), suspended in 0.1M phosphate buffer (pH 7.4) at 37 °C for predetermined time points, in the presence and absence of the cofactor NADPH (1 mM). Reactions were quenched by adding ice cold acetonitrile containing internal standard (carbamazepine, 0.0236 µg/mL). T he samples were centrifuged and test compound in the supernatant were analysed by means of LC -MS/MS (Agilent Rapid Resolution HPLC, AB SCIEX 4500 MS ). The relative loss of parent compound over time was monitored and plots (concentration vs. time) were prepared per compound to determine the first order rate constant for compound depletion. This was in turn used to calculate half-life, in vitro intrinsic clearance and in vivo hepatic extraction ratio. Metabolite searches were not conducted during the metabolic stability assay. 5

The nature of data set [6]: in vivo. On the set-up: species or system C57/BL6 mice. Conditions: for Vd / clearance / half-life / Tmax / Cmax: C57/BL6, in vivo; for clearance: read-out: CLtotal; for half-life: read-out: apparent t1/2 (converted); for Cmax: whole blood; for bioavailability: oral 20 mg/kg vs iv 5 mg/kg. As to the method:
In vivo PK studies were performed on compound 1 (sulfone) and compound 2 (sulfoxide) (Table 3). All studies and procedures were conducted with prior approval of the animal ethics committee of the University of Cape Town (approval numbers 013/028 and 014/028) in accordance with the South African National Standard (SANS 10386:008) for the Care and Use of Animals for Scientific Purposes and guidelines from the Department of Health. […]
the South African National Standard (SANS 10386:008) for the Care and Use of Animals for Scientific Purposes,6 and guidelines from the Department of Health.7
The pharmacokinetic parameters of the compounds were determined by dosing the compound to C57/BL6 mice through oral (n = 3 mice) and intravenous (n = 3 mice) administration. For oral administration, the compounds were formulated in 0.5% hydroxypropylmethyl cellulose (HPMC) in Phosphate buffered saline pH 7.4. The intravenous doses were administered in dimethylacetamide-polyethylene glycol 400-polypropylene glycol (DMA-PEG400-PPG) (10:30:60) Blood samples were collected via tail bleeding at predetermined time points and stored at -80°C until liquid chromatography-tandem mass spectrometry (LC-MS/MS) analysis.
The whole-blood concentrations of the compounds were determined using a quantitative LC- […]
method, using ice -cold acetonitrile.
After centrifugation, the supernatant was transferred to 96 -well plates for analysis. LC -MS/MS was carried out on an AB Sciex 400 0 QTrap coupled to an Agilent 1200 high -performance liquid chromatograph (HPLC). Separation was achieved on a Kinetex PFP column column, using 0.1% formic acid in water as the aqueous mobile phase and 0.1% formic acid in acetonitrile as the organic mobile phase. The analytical limit of quantitation (LOQ) was 1 ng/ml. LC-MS/MS method accuracy and precision were 15% (nom) for the standards and […]
Concentration-versus-time data were used to derive the PK parameters using noncompartmental analys is on PK Solutions 2.0 (Summit Research Services, Montrose, CO,

Data set [7] is described as follows: in vitro. Conditions: Chinese hamster.
The subject of data set [8] is cytochrome-bd oxidase knockout mutant strain (Δcyd). The data set is classed as cell-based.
The subject of data set [9] is iniB expression. The data set is classed as cell-based. Conditions: detects compounds targeting cell-wall biosynthesis.
The subject of data set [10] is recA expression. The data set is classed as cell-based. Conditions: indicator of genotoxic compounds.
The test system of data set [11] is Erdman Mtb strain. Briefly: MIC90 in different media, Erdman strain. It is filed as cell-based. Conditions: Mycobacterium tuberculosis.
[12] abbreviates: Mtb H37Rv, replicating conditions, GASTE-Fe media, read 14 days after incubation.
Where [13] appears, read: Mycobacterium tuberculosis, H37RV, 336 h, Mtb H37Rv, replicating conditions, GASTE-Fe media, read 14 days after incubation.
[14] abbreviates: C57/BL6, mouse, in vivo, read-out: bioavailability.
Setting [15] is: Erdman, 7H12 + casitone + palmitic acid + BSA + catalase + Tween 80 (glycerol-free).
[16] abbreviates: Mycobacterium tuberculosis, H37RV; 7H12 + casitone + palmitic acid + BSA + catalase + Tween 80 (glycerol-free); read-out: MIC90.
The mark [17] stands for this setting: Mycobacterium tuberculosis, H37RV; read-out: MIC90.
[18] abbreviates: 100 mg/kg oral once per day, 12 days, three days after last dose, untreated 6.51.

As to `CO[C@H]1/C=C/O[C@@]2(C)Oc3c(C)c(O)c4c(O)c(c(/C=N/N5CCN(C)CC5)c(O)c4c3C2=O)NC(=O)/C(C)=C\C=C\[C@H](C)[C@H](O)[C@@H](C)[C@@H](O)[C@@H](C)[C@H](OC(C)=O)[C@@H]1C` [Rifampicin, reference compound], the MIC90 in [1] (Mycobacterium tuberculosis, H37RV, 336 h) was determined as 0.0039 µM (≈ 0.00321 µg/mL). Besides, in data set [2], the MIC90 is under 0.008 µg/mL. In addition, the MIC in [2] (Mycobacterium tuberculosis, H37RV, read-out: MIC90) worked out at 0.016 µg/mL (≈ 0.0194 µM). Besides, in data set [3] (mouse, in vivo), the mean lung burdens was found to be 5.72 log10 CFU and the “reduction of lung burdens” value is 0.8 log.
As for `CS(=O)(=O)c1cccc(-c2ccc3nc(N)n(-c4ccc(C(F)(F)F)cc4)c(=O)c3c2)c1` [compound 1, 2-Amino-6-(3-(methylsulfonyl)phenyl)-3-(4-(trifluoromethyl)phenyl)quinazolin-4(3H)-one], the MIC90 in data set [1] (setting [12]) is under 0.244 µM. Further, the MIC90 in [1] (setting [13]) is under 0.244 µM. The same compound gave a solubility in [4] of under 5 µM. In [5], the “Metabolic Stability H (% Rem.)” value is listed as 97 % Rem, the “Metabolic Stability M (% Rem.)” value stood at 92 % Rem and the “Metabolic Stability R (% Rem.)” value is 100 % Rem. The “AUC0–∞” value in data set [6] (1 as metabolite of 2, mouse, oral 20 mg/kg of compound 2) amounted to 18430 min·μmol·L^–1. In data set [6] (mouse, iv 5 mg/kg), the Vd came out at 0.81 L/kg, the clearance amounted to 1.3 mL/min/kg, the half-life is 7.3 h and the “AUC0–∞” value came to 8589 min·μmol·L^–1. Also, in data set [6] (mouse, oral 20 mg/kg), the Tmax amounted to 3 h, the Cmax is 5.98 µM and the “AUC0–∞” value was determined as 7249 min·μmol·L^–1. Also, the bioavailability in [6] (setting [14]) worked out at 18%. The compound further had a bioavailability in data set [6] (mouse) of 18.4%. The IC50 in [7] was over 100 µM.
`C[S+]([O-])c1cccc(-c2ccc3nc(N)n(-c4ccc(C(F)(F)F)cc4)c(=O)c3c2)c1` (stereo not shown) [compound 2, 2-Amino-6-(3-(methylsulfinyl)phenyl)-3-(4-(trifluoromethyl)phenyl)quinazolin-4(3H)-one]: the MIC90 in data set [1] (setting [13]) stood at 0.64 µM (≈ 0.284 µg/mL). Also, the concentration in solution in data set [4] (solubility) was 80 µM (≈ 35.5 µg/mL). In data set [5], the “Metabolic Stability H (% Rem.)” value is 88/-/- % Rem. For the same compound, in data set [6] (mouse, iv 5 mg/kg), the Vd was found to be 11.1 L/kg, the clearance was found to be 21.8 mL/min/kg, the half-life was 6.2 h and the “AUC0–∞” value came to 523 min·μmol·L^–1. In addition, in [6] (mouse, oral 20 mg/kg), the Tmax turned out to be 0.5 h, the highest level (Cmax) was 3.54 µM and the “AUC0–∞” value amounted to 2152 min·μmol·L^–1. In data set [6] (setting [14]), the bioavailability is 93%. The “Δcyd GASTE-Fe MIC90” value in data set [8] came to 2.5 µM. Besides, in data set [9], the “signal in PiniB-LUX reporter assay” value is listed as “did not show a positive signal”. Besides, the “signal in PrecA-LUX reporter assay” value in data set [10] was “did not show a positive signal”. In [11], this compound displayed an MIC of 1 µg/mL (≈ 2.26 µM). In [11] (setting [15]), the MIC was over 16 µg/mL. Further, the MIC in data set [2] (setting [16]) was over 16 µg/mL. For the same compound, the MIC in [2] (setting [17]) was found to be 0.5 µg/mL (≈ 1.13 µM). Moreover, the mean lung burdens in data set [3] (setting [18]) was 7.84 log10 CFU. For the same compound, in data set [3] (200 mg/kg oral once per day, 12 days, three days after last dose, untreated 6.51), the mean lung burdens is on record as 7.75 log10 CFU. In addition, the tolerability entry in data set [3] (100 and 200 mg/kg oral once per day, 12 consecutive days) is reported as “no evidence of compound tolerability issues”. Moreover, in data set [3] (100 and 200 mg/kg oral, 12 days), the “efficacy in the BALB/c acute infection model” value is reported as “lack efficacy”. In [7], this compound displayed an IC50 of over 100 µM.
For `CNc1nc2ccc(-c3cccc(S(C)(=O)=O)c3)cc2c(=O)n1-c1ccc(C(F)(F)F)cc1` [compound 41, 2-(Methylamino)-6-(3-(methylsulfonyl)phenyl)-3-(4-(trifluoromethyl)phenyl)quinazolin-4(3H)-one], the MIC90 in data set [1] (setting [12]) is on record as over 125 µM. The MIC90 in data set [1] (setting [13]) is over 125 µM. In [4], this compound returned a solubility of under 5 µM. For the same compound, in [5], the “Metabolic Stability H (% Rem.)” value turned out to be 98 % Rem, the “Metabolic Stability M (% Rem.)” value is given as 100 % Rem and the “Metabolic Stability R (% Rem.)” value worked out at 100 % Rem. For the same compound, in [7], the IC50 was over 50 µM.
In turn, `CC[C@@H](CO)NCCN[C@@H](CC)CO` [ethambutol, reference compound] returned a mean lung burdens in data set [3] (setting [18]) of 4.15 log10 CFU. Also, in data set [3] (100 mg/kg, relative to untreated), the “reduction of lung burdens” value is reported as 2.4 log.
On to `NNC(=O)c1ccncc1` [isoniazid, reference compound], for which the MIC in [11] was 0.016 µg/mL (≈ 0.117 µM); in data set [11] (setting [15]), 0.016 µg/mL; in [2] (setting [16]), 0.016 µg/mL; in data set [2] (setting [17]), 0.016 µg/mL (≈ 0.117 µM).

As usually defined, the MIC90 is an inhibitory concentration at the 90% level, which refers to growth in some studies and to a panel of isolates in others. In general, solubility refers to the dissolved amount per volume that the medium holds. A higher solubility goes with a readily soluble substance. What is called Vd is a proportionality between amount in the body and measured concentration, not a real space. A higher Vd goes with wide distribution into tissue. For orientation: Tmax means the time from dosing to the highest level. What is called Cmax is the highest concentration seen after dosing. The term bioavailability denotes the share of a dose that reaches the circulation, judged against a reference dose that is usually intravenous. As usually defined, the IC50 is the concentration that gives 50% inhibition. Read a high IC50 as weaker potency.
